Patent US11306117B2, “Whitening composition containing novel quercetin-based compound” (AMOREPACIFIC CORPORATION, priority 2017, dated 2022)

Assays:
mushroom tyrosinase = assay: Inhibition of tyrosinase activity; type: biochemical; conditions: L-tyrosine, 37° C., 20 minutes, absorbance 490 nm
Protocol: The effect of New Materials 31 and 32 on inhibiting tyrosinase activity was evaluated.
Specifically, tyrosinase and tyrosine derived from mushroom were obtained from Sigma Chemical. Together with 150 μl of 0.1 M phosphate buffer (pH 6.5), 8 μl of mushroom tyrosinase (2,100 unit/ml) and 0.05 M concentration of L-tyrosine, arbutin and New Materials 31 and 32 were treated at the concentrations of following Table 3, respectively. The tyrosinase activity was evaluated by performing the enzyme reaction at 37° C. for 20 minutes and then measuring absorbance at 490 nm using a microplate reader (Bio-Rad 3550, Richmond, Calif., U.S.A.).

Mel-Ab cell line = assay: Inhibition of melanogenesis in Mel-Ab cells (method of Dooley); type: cell-based, C57BL/6; conditions: melanin by absorbance at 400 nm after 5 days
Protocol: The effects of New Materials 31 and 32 on inhibiting melanogenesis were compared with Kojic acids which have been known to have an excellent skin whitening effect, and measured.
Specifically, the degree of melanogenesis in cells was measured by a method of Dooley. As the cell line, Mel-Ab cell line (Falcon, U.S.A.) derived from a skin pigment of C57BL/6 was used. Culturing was made under the condition of 37° C., 5% CO2 of a DMEM medium containing 10% placenta serum, 100 nM 12-O-tetradecanoylphorbol-13-acetate, and 1 nM Cholera Toxin. The test materials were treated in the manner where the cultured Mel-Ab cell was isolated with 0.25% trypsin-EDTA, and inoculated again with the same number (1×10^5 cells/well) in the 24-well plate, and then the medium was replaced with a medium containing the test materials for two days from the second day. As the test materials, 5 ppm, 10 ppm, 25 ppm and 50 ppm of New Materials 31 and 32, 25 ppm, 50 ppm and 100 ppm of Kojic acids and DMSO (control) were used. After 5 days, the test materials were treated with 1N-NaOH to dissolve melanin contained in the cell, and the amount of melanin was measured by measuring absorbance at 400 nm. The concentration (IC50) of the material necessary for reducing melanogenesis of melanocyte by half was calculated, and the results are shown in following Table 4.

Row | SMILES | IC50 inhibiting tyrosinase activity (mushroom tyrosinase) [ppm] | IC50 inhibiting melanogenesis (Mel-Ab cell line) [ppm]
1 | C[C@@H]1O[C@@H](OC[C@H]2O[C@@H](Oc3c(-c4ccc(O)c(O)c4)oc4cc(O)cc(O)c4c3=O)[C@H](O)[C@@H](OC(=O)/C=C/c3ccc(O)cc3)[C@@H]2O)[C@H](O)[C@H](O)[C@H]1O [New Material 32, quercetin3-O-[3-O″-(E)-p-coumaroyl][α-L-rhamnopyranosyl-(1→6)-O-β-D-glucopyranoside]] | 19 | 23.5
2 | C[C@@H]1O[C@@H](OC[C@H]2O[C@@H](Oc3c(-c4ccc(O)c(O)c4)oc4cc(O)cc(O)c4c3=O)[C@H](O)[C@@H](OC(=O)/C=C/c3ccc(O)cc3)[C@@H]2O)[C@H](O)[C@H](O[C@@H]2O[C@H](CO)[C@@H](O)[C@H](O)[C@H]2O)[C@H]1O [New Material 31, quercetin3-O-[3-O″-(E)-p-coumaroyl][β-D-glucopyranosyl-(1→3)-O-α-L-rhamnopyranosyl-(1→6)-O-β-D-glucopyranoside]] | 16 | 23.5
